Results as given in PubChem BioAssay (NCI).
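Values below derive from 48-hour exposures of cells grown in 96-well plates, with endpoints linearly interpolated between the two concentrations bracketing the appropriate inhibition level. At the TGI there is no net growth.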

Key:
Experiment in all cases: inhibition of tumour cell growth, NCI panel, 48 h
OVCAR-3 ovarian = test system: OVCAR-3 ovarian
SF-539 CNS = test system: SF-539 CNS
COLO 205 colon = test system: COLO 205 colon
NCI-H226 lung = test system: NCI-H226 lung
SF-268 CNS = test system: SF-268 CNS
UACC-62 melanoma = test system: UACC-62 melanoma
BT-549 breast = test system: BT-549 breast
MDA-MB-231 breast = test system: MDA-MB-231 breast
NCI/ADR-RES ovarian = test system: NCI/ADR-RES ovarian
HS 578T breast = test system: HS 578T breast

O=C(O)c1ccc(C2=Cc3cc(Cl)ccc3OC2)cc1
TGI (OVCAR-3 ovarian): > 100 µM | TGI (SF-539 CNS): > 100 µM | TGI (COLO 205 colon): > 100 µM | TGI (NCI-H226 lung): > 100 µM | TGI (SF-268 CNS): > 100 µM | TGI (UACC-62 melanoma): > 100 µM

CC(=O)NC(C)(C)C1CCC(C)=C(c2ccccc2)C1 (centres undefined)
TGI (BT-549 breast): > 100 µM | TGI (OVCAR-3 ovarian): > 100 µM | TGI (SF-539 CNS): > 100 µM | TGI (COLO 205 colon): > 100 µM | TGI (SF-268 CNS): > 100 µM | TGI (UACC-62 melanoma): > 100 µM | TGI (MDA-MB-231 breast): > 100 µM

O=C(O)c1cnc(-n2[nH]c3c(c2=O)CCCC3)[nH]c1=O
TGI (NCI/ADR-RES ovarian): > 100 µM | TGI (BT-549 breast): > 100 µM | TGI (HS 578T breast): > 100 µM | TGI (SF-539 CNS): > 100 µM | TGI (COLO 205 colon): > 100 µM | TGI (NCI-H226 lung): > 100 µM | TGI (SF-268 CNS): > 100 µM | TGI (UACC-62 melanoma): > 100 µM | TGI (MDA-MB-231 breast): > 100 µM

CC(=O)Nc1ccc2[nH]c(C(=O)N3CC(CCl)c4c3cc([N+](=O)[O-])c3ccccc43)cc2c1 (centres undefined)
TGI (NCI/ADR-RES ovarian): > 100 µM | TGI (BT-549 breast): > 100 µM | TGI (HS 578T breast): > 95 µM | TGI (OVCAR-3 ovarian): > 100 µM | TGI (COLO 205 colon): > 100 µM | TGI (NCI-H226 lung): 58.8 µM | TGI (SF-268 CNS): > 57.1 µM | TGI (UACC-62 melanoma): > 31.6 µM | TGI (MDA-MB-231 breast): > 100 µM

c1csc(-c2ccsc2-c2cccs2)c1
TGI (NCI/ADR-RES ovarian): > 100 µM | TGI (HS 578T breast): > 100 µM | TGI (OVCAR-3 ovarian): > 100 µM | TGI (SF-539 CNS): > 100 µM | TGI (COLO 205 colon): > 100 µM | TGI (NCI-H226 lung): > 100 µM | TGI (SF-268 CNS): > 100 µM | TGI (UACC-62 melanoma): > 100 µM

Cc1cccc(N2C(=O)C3c4[nH]c5ccccc5c4C4CCC(C(C)(C)C)CC4C3C2=O)c1 (centres undefined)
TGI (NCI/ADR-RES ovarian): 32.2 µM | TGI (BT-549 breast): 33.5 µM | TGI (HS 578T breast): 29.2 µM | TGI (OVCAR-3 ovarian): 27.4 µM | TGI (COLO 205 colon): 24.2 µM | TGI (NCI-H226 lung): 34.1 µM | TGI (SF-268 CNS): 13.7 µM | TGI (UACC-62 melanoma): 49 µM | TGI (MDA-MB-231 breast): 21.3 µM

C/C=C1\CN(C(=O)OC(C)(C)C)C1C(=O)OC(C)(C)C (centres undefined)
TGI (NCI/ADR-RES ovarian): > 100 µM | TGI (BT-549 breast): > 100 µM | TGI (HS 578T breast): > 100 µM | TGI (OVCAR-3 ovarian): > 100 µM | TGI (SF-539 CNS): > 100 µM | TGI (COLO 205 colon): > 100 µM | TGI (SF-268 CNS): > 100 µM | TGI (UACC-62 melanoma): > 100 µM

O=C1/C=C(/c2ccc(O)cc2)[C@@H](O)Cc2ccc(O)cc2O1
TGI (OVCAR-3 ovarian): > 100 µM | TGI (SF-539 CNS): > 100 µM | TGI (COLO 205 colon): > 100 µM | TGI (NCI-H226 lung): 89.6 µM | TGI (SF-268 CNS): > 100 µM | TGI (UACC-62 melanoma): > 100 µM

CC(=O)Oc1c(-c2ccccc2)sc2ccccc12
TGI (NCI/ADR-RES ovarian): 59.1 µM | TGI (BT-549 breast): 50 µM | TGI (HS 578T breast): 40.6 µM | TGI (SF-539 CNS): 46.8 µM | TGI (COLO 205 colon): 30.2 µM | TGI (NCI-H226 lung): 28.8 µM | TGI (SF-268 CNS): 71.2 µM | TGI (UACC-62 melanoma): 63.2 µM | TGI (MDA-MB-231 breast): 33.4 µM

Cc1c(N=Nc2ccccc2)c(C)n(C2OC(CO)C(O)C(O)C2O)c(=S)c1C#N (centres undefined)
TGI (NCI/ADR-RES ovarian): > 100 µM | TGI (BT-549 breast): 45.8 µM | TGI (HS 578T breast): > 100 µM | TGI (OVCAR-3 ovarian): 62.9 µM | TGI (SF-539 CNS): 57.8 µM | TGI (COLO 205 colon): > 100 µM | TGI (SF-268 CNS): > 100 µM | TGI (UACC-62 melanoma): 18.9 µM | TGI (MDA-MB-231 breast): > 100 µM

NC(CSSCC(N)=NCC12CC3CC(CC(C3)C1)C2)=NCC12CC3CC(CC(C3)C1)C2
TGI (NCI/ADR-RES ovarian): 33.8 µM | TGI (HS 578T breast): 50.7 µM | TGI (OVCAR-3 ovarian): 35.6 µM | TGI (SF-539 CNS): 34.3 µM | TGI (COLO 205 colon): 52.5 µM | TGI (NCI-H226 lung): 43.3 µM | TGI (SF-268 CNS): > 100 µM | TGI (UACC-62 melanoma): 26.1 µM | TGI (MDA-MB-231 breast): 16.2 µM

O=C(/C=C(\S/C=C(/c1ccccc1)N1CCn2c(C(=O)c3ccccc3)c(C(=O)c3ccccc3)c(C(=O)c3ccccc3)c21)C(=O)c1ccccc1)c1ccccc1
TGI (NCI/ADR-RES ovarian): > 10 µM | TGI (BT-549 breast): > 10 µM | TGI (HS 578T breast): > 10 µM | TGI (OVCAR-3 ovarian): > 10 µM | TGI (SF-539 CNS): > 10 µM | TGI (COLO 205 colon): > 10 µM | TGI (SF-268 CNS): > 10 µM | TGI (UACC-62 melanoma): > 10 µM | TGI (MDA-MB-231 breast): > 10 µM

CCOC(=O)C(Cc1c[nH]c2cc([N+](=O)[O-])ccc12)NS(=O)(=O)c1ccc2ccccc2c1 (centres undefined)
TGI (OVCAR-3 ovarian): 31.5 µM | TGI (SF-539 CNS): 32.9 µM | TGI (COLO 205 colon): 32.1 µM | TGI (NCI-H226 lung): 48.2 µM | TGI (SF-268 CNS): 43.5 µM | TGI (UACC-62 melanoma): 31.3 µM

Nc1ncn2c(n1)nc1ccccc12
TGI (NCI/ADR-RES ovarian): > 100 µM | TGI (BT-549 breast): > 100 µM | TGI (HS 578T breast): > 100 µM | TGI (SF-539 CNS): > 100 µM | TGI (COLO 205 colon): > 100 µM | TGI (NCI-H226 lung): > 100 µM | TGI (SF-268 CNS): > 100 µM | TGI (UACC-62 melanoma): > 100 µM | TGI (MDA-MB-231 breast): > 100 µM

O=C(Nc1cccc([N+](=O)[O-])c1)c1n[nH]n(-c2cccc([N+](=O)[O-])c2)c1=O
TGI (NCI/ADR-RES ovarian): > 100 µM | TGI (HS 578T breast): > 100 µM | TGI (SF-539 CNS): > 100 µM | TGI (COLO 205 colon): > 100 µM | TGI (NCI-H226 lung): > 100 µM | TGI (SF-268 CNS): > 100 µM | TGI (UACC-62 melanoma): > 100 µM | TGI (MDA-MB-231 breast): > 100 µM

S=c1[nH]n2c(CCCCCCCCc3nnc4sc(=S)[nH]n34)nnc2s1
TGI (NCI/ADR-RES ovarian): > 100 µM | TGI (BT-549 breast): > 100 µM | TGI (OVCAR-3 ovarian): > 100 µM | TGI (SF-539 CNS): > 100 µM | TGI (COLO 205 colon): > 100 µM | TGI (NCI-H226 lung): > 100 µM | TGI (SF-268 CNS): > 100 µM | TGI (UACC-62 melanoma): > 100 µM | TGI (MDA-MB-231 breast): > 100 µM

CC(=O)Oc1ccc2c(c1)CC[C@@H]1C2[C@@H](O[N+](=O)[O-])C[C@@]2(C)C1CC[C@@H]2O[N+](=O)[O-] (some centres undefined)
TGI (NCI/ADR-RES ovarian): 33.6 µM | TGI (BT-549 breast): 33.8 µM | TGI (HS 578T breast): 47.7 µM | TGI (OVCAR-3 ovarian): 28.5 µM | TGI (SF-539 CNS): 35.9 µM | TGI (COLO 205 colon): 34.2 µM | TGI (SF-268 CNS): 29.7 µM | TGI (UACC-62 melanoma): 32.5 µM

Clc1cccc(NN=Nc2ccc(-c3nc4ccccc4s3)cc2)c1
TGI (NCI/ADR-RES ovarian): 74.1 µM | TGI (BT-549 breast): > 100 µM | TGI (HS 578T breast): > 100 µM | TGI (OVCAR-3 ovarian): > 100 µM | TGI (SF-539 CNS): > 100 µM | TGI (COLO 205 colon): > 100 µM | TGI (NCI-H226 lung): > 100 µM | TGI (UACC-62 melanoma): 51.8 µM

NNC(=S)NCCNC(=S)NN
TGI (BT-549 breast): > 100 µM | TGI (HS 578T breast): > 100 µM | TGI (OVCAR-3 ovarian): > 100 µM | TGI (COLO 205 colon): > 100 µM | TGI (SF-268 CNS): > 100 µM | TGI (UACC-62 melanoma): > 100 µM | TGI (MDA-MB-231 breast): > 100 µM

O=C(CSc1nc(-c2ccccc2)c(-c2ccccc2)[nH]1)N/N=C/c1ccc(O)cc1
TGI (OVCAR-3 ovarian): 48.4 µM | TGI (SF-539 CNS): 40.5 µM | TGI (COLO 205 colon): 35.1 µM | TGI (NCI-H226 lung): 82 µM | TGI (SF-268 CNS): 88.5 µM | TGI (UACC-62 melanoma): 54.9 µM

O=c1ccn(C2OC(CO)C(O)C2F)c(=O)n1Cc1ccccc1 (centres undefined)
TGI (NCI/ADR-RES ovarian): > 100 µM | TGI (HS 578T breast): > 100 µM | TGI (OVCAR-3 ovarian): > 100 µM | TGI (SF-539 CNS): > 100 µM | TGI (COLO 205 colon): > 100 µM | TGI (NCI-H226 lung): > 100 µM | TGI (SF-268 CNS): > 100 µM | TGI (UACC-62 melanoma): > 100 µM | TGI (MDA-MB-231 breast): > 100 µM

NC1=NS(=O)(=O)Nc2nc(-c3ccccc3)[nH]c21
TGI (OVCAR-3 ovarian): > 100 µM | TGI (SF-539 CNS): > 100 µM | TGI (COLO 205 colon): > 100 µM | TGI (NCI-H226 lung): > 100 µM | TGI (SF-268 CNS): > 100 µM | TGI (UACC-62 melanoma): > 100 µM

C=C1C(O)C[C@H](OC(C)=O)[C@]2(C)C1C(OC(C)=O)[C@]1(C(C)(C)O)CC(O)C(C)=C1[C@@H](OC(=O)c1ccccc1)C2OC(C)=O (some centres undefined)
TGI (NCI/ADR-RES ovarian): > 10 µM | TGI (HS 578T breast): > 10 µM | TGI (OVCAR-3 ovarian): > 10 µM | TGI (SF-539 CNS): > 10 µM | TGI (COLO 205 colon): > 10 µM | TGI (NCI-H226 lung): > 10 µM | TGI (SF-268 CNS): > 10 µM | TGI (UACC-62 melanoma): > 10 µM | TGI (MDA-MB-231 breast): > 10 µM

O=[N+]([O-])C(/C=N/Nc1ccccc1)/C=N/Nc1ccccc1
TGI (OVCAR-3 ovarian): > 100 µM | TGI (SF-539 CNS): > 100 µM | TGI (COLO 205 colon): > 100 µM | TGI (NCI-H226 lung): > 100 µM | TGI (SF-268 CNS): > 100 µM | TGI (UACC-62 melanoma): > 100 µM
